pEC50: −log10 of the molar value.
Experiments:
Type in all cases: functional, organism-based
[1] = test system: Enterovirus C; experiment: Antiviral activity against Poliovirus 10235 serotype PV1 obtained from circulating vaccine infected in […] LLC-MK2 cells assessed as inhibition of viral-replication induced cytopathic effect; conditions: 10235 serotype PV1, LLC-MK2
[2] = test system: Enterovirus C; experiment: Antiviral activity against Poliovirus 10236 serotype PV1 obtained from circulating vaccine infected in […] LLC-MK2 cells assessed as inhibition of viral-replication induced cytopathic effect; conditions: 10236 serotype PV1, LLC-MK2
[3] = test system: Enterovirus C; experiment: Antiviral activity against Poliovirus 10238 serotype PV1 obtained from circulating vaccine infected in […] LLC-MK2 cells assessed as inhibition of viral-replication induced cytopathic effect; conditions: 10238 serotype PV1, LLC-MK2
[4] = test system: Enterovirus C; experiment: Antiviral activity against Poliovirus 10237 serotype PV1 obtained from circulating vaccine infected in […] LLC-MK2 cells assessed as inhibition of viral-replication induced cytopathic effect; conditions: 10237 serotype PV1, LLC-MK2
[5] = test system: Enterovirus C; experiment: Antiviral activity against Poliovirus 10239 serotype PV1 obtained from circulating vaccine infected in […] LLC-MK2 cells assessed as inhibition of viral-replication induced cytopathic effect; conditions: 10239 serotype PV1, LLC-MK2
[6] = test system: Enterovirus C; experiment: Antiviral activity against Poliovirus 10240 serotype PV1 obtained from circulating vaccine infected in […] LLC-MK2 cells assessed as inhibition of viral-replication induced cytopathic effect; conditions: 10240 serotype PV1, LLC-MK2
[7] = test system: Enterovirus C; experiment: Antiviral activity against Poliovirus 10241 serotype PV1 obtained from circulating vaccine infected in […] LLC-MK2 cells assessed as inhibition of viral-replication induced cytopathic effect; conditions: 10241 serotype PV1, LLC-MK2
[8] = test system: Enterovirus C; experiment: Antiviral activity against Poliovirus 10242 serotype PV1 obtained from circulating vaccine infected in […] LLC-MK2 cells assessed as inhibition of viral-replication induced cytopathic effect; conditions: 10242 serotype PV1, LLC-MK2
[9] = test system: Enterovirus C; experiment: Antiviral activity against Poliovirus 10690 serotype PV1 obtained from circulating vaccine infected in […] LLC-MK2 cells assessed as inhibition of viral-replication induced cytopathic effect; conditions: 10690 serotype PV1, LLC-MK2
[10] = test system: Enterovirus C; experiment: Antiviral activity against Poliovirus 10691 serotype PV1 obtained from circulating vaccine infected in […] LLC-MK2 cells assessed as inhibition of viral-replication induced cytopathic effect; conditions: 10691 serotype PV1, LLC-MK2
[11] = test system: Enterovirus C; experiment: Antiviral activity against Poliovirus 10692 serotype PV1 obtained from circulating vaccine infected in […] LLC-MK2 cells assessed as inhibition of viral-replication induced cytopathic effect; conditions: 10692 serotype PV1, LLC-MK2
[12] = test system: Enterovirus C; experiment: Antiviral activity against Poliovirus 10693 serotype PV1 obtained from circulating vaccine infected in […] LLC-MK2 cells assessed as inhibition of viral-replication induced cytopathic effect; conditions: 10693 serotype PV1, LLC-MK2
[13] = test system: Enterovirus C; experiment: Antiviral activity against Poliovirus 10694 serotype PV1 obtained from immunodeficient chronic excretor infected in […] LLC-MK2 cells assessed as inhibition of viral-replication induced cytopathic effect; conditions: 10694 serotype PV1, LLC-MK2
[14] = test system: Enterovirus C; experiment: Antiviral activity against Poliovirus 10695 serotype PV1 obtained from immunodeficient chronic excretor infected in […] LLC-MK2 cells assessed as inhibition of viral-replication induced cytopathic effect; conditions: 10695 serotype PV1, LLC-MK2
[15] = test system: Enterovirus C; experiment: Antiviral activity against Poliovirus 10668 serotype PV1 obtained from immunodeficient chronic excretor infected in […] LLC-MK2 cells assessed as inhibition of viral-replication induced cytopathic effect; conditions: 10668 serotype PV1, LLC-MK2
[16] = test system: Enterovirus C; experiment: Antiviral activity against Poliovirus 10689 serotype PV1 obtained from immunodeficient chronic excretor infected in […] LLC-MK2 cells assessed as inhibition of viral-replication induced cytopathic effect; conditions: 10689 serotype PV1, LLC-MK2
[17] = test system: Enterovirus C; experiment: Antiviral activity against Poliovirus 10223 serotype PV1 obtained from immunodeficient chronic excretor infected in […] LLC-MK2 cells assessed as inhibition of viral-replication induced cytopathic effect; conditions: 10223 serotype PV1, LLC-MK2
[18] = test system: Enterovirus C; experiment: Antiviral activity against Poliovirus 10222 serotype PV1 obtained from immunodeficient chronic excretor infected in […] LLC-MK2 cells assessed as inhibition of viral-replication induced cytopathic effect; conditions: 10222 serotype PV1, LLC-MK2
[19] = test system: Enterovirus C; experiment: Antiviral activity against Poliovirus 10225 serotype PV1 obtained from immunodeficient chronic excretor infected in […] LLC-MK2 cells assessed as inhibition of viral-replication induced cytopathic effect; conditions: 10225 serotype PV1, LLC-MK2
[20] = test system: Enterovirus C; experiment: Antiviral activity against Poliovirus 10224 serotype PV1 obtained from immunodeficient chronic excretor infected in […] LLC-MK2 cells assessed as inhibition of viral-replication induced cytopathic effect; conditions: 10224 serotype PV1, LLC-MK2
[21] = test system: Enterovirus C; experiment: Antiviral activity against Poliovirus Brunhilde serotype PV1 infected in […] LLC-MK2 cells assessed as inhibition of viral-replication induced cytopathic effect
[22] = test system: Enterovirus C; experiment: Antiviral activity against Poliovirus Mahoney serotype PV1 infected in […] LLC-MK2 cells assessed as inhibition of viral-replication induced cytopathic effect
[23] = test system: Enterovirus C; experiment: Antiviral activity against Poliovirus PV1-LSc/2ab serotype PV1 vaccine-derived infected in […] LLC-MK2 cells assessed as inhibition of viral-replication induced cytopathic effect; conditions: PV1-LSc/2ab serotype PV1, LLC-MK2
[24] = test system: Enterovirus C; experiment: Antiviral activity against Poliovirus 10229 serotype PV2 obtained from circulating vaccine infected in […] LLC-MK2 cells assessed as inhibition of viral-replication induced cytopathic effect; conditions: 10229 serotype PV2, LLC-MK2
[25] = test system: Enterovirus C; experiment: Antiviral activity against Poliovirus 10230 serotype PV2 obtained from circulating vaccine infected in […] LLC-MK2 cells assessed as inhibition of viral-replication induced cytopathic effect; conditions: 10230 serotype PV2, LLC-MK2
[26] = test system: Enterovirus C; experiment: Antiviral activity against Poliovirus 10231 serotype PV2 obtained from circulating vaccine infected in […] LLC-MK2 cells assessed as inhibition of viral-replication induced cytopathic effect; conditions: 10231 serotype PV2, LLC-MK2
[27] = test system: Enterovirus C; experiment: Antiviral activity against Poliovirus 10232 serotype PV2 obtained from circulating vaccine infected in […] LLC-MK2 cells assessed as inhibition of viral-replication induced cytopathic effect; conditions: 10232 serotype PV2, LLC-MK2
[28] = test system: Enterovirus C; experiment: Antiviral activity against Poliovirus 10233 serotype PV2 obtained from circulating vaccine infected in […] LLC-MK2 cells assessed as inhibition of viral-replication induced cytopathic effect; conditions: 10233 serotype PV2, LLC-MK2
[29] = test system: Enterovirus C; experiment: Antiviral activity against Poliovirus 10234 serotype PV2 obtained from circulating vaccine infected in […] LLC-MK2 cells assessed as inhibition of viral-replication induced cytopathic effect; conditions: 10234 serotype PV2, LLC-MK2
[30] = test system: Enterovirus C; experiment: Antiviral activity against Poliovirus 10219 serotype PV2 obtained from circulating vaccine infected in […] LLC-MK2 cells assessed as inhibition of viral-replication induced cytopathic effect; conditions: 10219 serotype PV2, LLC-MK2
[31] = test system: Enterovirus C; experiment: Antiviral activity against Poliovirus 10220 serotype PV2 obtained from circulating vaccine infected in […] LLC-MK2 cells assessed as inhibition of viral-replication induced cytopathic effect; conditions: 10220 serotype PV2, LLC-MK2

Structure (SMILES): COc1ccc(OCc2ccc(COc3c(Cl)cccc3Cl)cc2)c(Cl)c1
- pEC50 [1]: 7.74
- pEC50 [2]: 7.54
- pEC50 [3]: 7.85
- pEC50 [4]: 7.96
- pEC50 [5]: 7.85
- pEC50 [6]: 7.82
- pEC50 [7]: 7.08
- pEC50 [8]: 7.77
- pEC50 [9]: 7.54
- pEC50 [10]: 7.74
- pEC50 [11]: 7.54
- pEC50 [12]: 8.10
- pEC50 [13]: 7.85
- pEC50 [14]: 8.10
- pEC50 [15]: 7.68
- pEC50 [16]: 7.38
- pEC50 [17]: 8.00
- pEC50 [18]: 7.82
- pEC50 [19]: 7.77
- pEC50 [20]: 7.16
- pEC50 [21]: 7.74
- pEC50 [22]: 7.12
- pEC50 [23]: 7.77
- pEC50 [24]: 7.70
- pEC50 [25]: 7.44
- pEC50 [26]: 7.55
- pEC50 [27]: 7.72
- pEC50 [28]: 7.62
- pEC50 [29]: 8.05
- pEC50 [30]: 7.64
- pEC50 [31]: 8.00

From ChEMBL document CHEMBL1649227, “In vitro antiviral activity of V-073 against polioviruses” (Antimicrob Agents Chemother, 2009)
